Measurements taken from the NIST ThermoML archive (doi:10.1021/je500867u).
± gives the expanded uncertainty stated by the source.

Conditions: Crystal; visual observation

Normal melting temperature: 288.0 ± 0.5 °C
Structure (SMILES): Nc1ccc(S(=O)(=O)O)cc1 [4-aminobenzenesulfonic acid]
